The values that follow are results of earlier work, collected in PMC7904233 (Journal of medicinal chemistry, 2020).

In the series the test system is EBOV Zaire. The settings on record: in vivo; cited from earlier work.

For the molecule `CN(C)CCOc1ccc(/C(=C(/CCCl)c2ccccc2)c2ccccc2)cc1` [Compound 1, Toremifene], the mouse survival is recorded as 50%.
Regarding `CCN(CC)CCOc1ccc(C(=C(Cl)c2ccccc2)c2ccccc2)cc1` [clomiphene], the mouse survival was 90%.
